Assay results reported in patent US10175229B2, “Rapid method for measuring cytotoxicity in non-RI system” (NAGASAKI UNIVERSITY, priority 2014, dated 2019).

Tested on: Histiocytoma U937 cells
Experiment: Spontaneous and maximum release of labeled compound, time-resolved fluorometric assay (Eu assay)
Type: cell-based
Details: for maximum release (B) / spontaneous release (A): U937 cells labeled with 25 μM compound for 15 min; for maximum release (B): lysed with 0.125% digitonin in 19% DMSO, time-resolved fluorescence with europium solution; for spontaneous release (A): supernatant added to europium solution, time-resolved fluorescence, wells without digitonin; for spontaneous release (%) (C) (100 × A/B): U937 cells, 25 μM compound, ratio of spontaneous to maximum release
Experimental: Histiocytoma U937 cells were cultured in 30 mL of RPMI1640 medium under the conditions of 37° C., 5% CO2 overnight, the culture medium (30 mL) was placed in a 50 mL conical tube, and the cell number was counted. After centrifugation at 1700 rpm at 4° C. for 5 min, the supernatant was removed, and the cell pellets were resuspended in RPMI1640 medium at 1×10^6 cells/mL. To the cell suspension (1 mL) in a 15 mL conical tube was added 2.5 μL of a compound represented by the formula (I) or a salt thereof (10 mM stock solution) (final concentration: 25 μM), and the mixture was incubated under the conditions of 37° C., 5% CO2 for 15 min. The cells were washed 3 times with 5 mL of RPMI1640 medium, and resuspended in 5 mL of RPMI1640 medium. The cell suspension (2 mL) was placed in a 15 mL conical tube containing 6 mL of RPMI1640 medium to adjust the cell concentration to 5×10^3 cells/100 μL. The cell suspension (100 μL) was seeded in 6 wells of a 96 flat bottom plate. 100 μL of RPMI1640 medium was added to wells for determining the amount of spontaneous release, and 90 μL of RPMI1640 medium was added to wells for determining the amount of maximum release. The plates were centrifuged at 500 rpm, room temperature for 2 min and incubated under 37° C., 5% CO2 condition for 30 min. A newly-prepared 0.125% digitonin solution in 19% DMSO (mixed solution of 3 mg digitonin, 0.456 mL DMSO and 1.944 mL H2O) (10 μL) was added to the aforementioned wells for determining the amount of maximum release, mixed well and further incubated for 30 min. After incubation, the cell suspension was mixed well again, and centrifuged at 1700 rpm, room temperature for 2 min. After the centrifugation, the supernatant (25 μL) was carefully transferred into wells containing 250 μL of europium solution in a 96 flat bottom plate, and 200 μL of the solution thereof was placed in a 96-well flat bottom plate.
The plate was allowed to stand for 15 min, and the time-resolved fluorescence was measured by ARVO multiplate reader.

Compound | maximum release (B) | spontaneous release (A) | spontaneous release (%) (C) (100 × A/B)
CCC(=O)OCOC(=O)c1cccc(-c2cc(OCCO)cc(-c3cccc(C(=O)OCOC(=O)CC)n3)n2)n1 [Example 5, bis(propionyloxymethyl) 4′-(2-hydroxyethoxy)-2,2′:6′,2″-terpyridine-6,6″-dicarboxylate] | 78831 | 6991 | 8.9
CCCC(=O)OCOC(=O)c1cccc(-c2cc(OCC=O)cc(-c3cccc(C(=O)OCOC(=O)CCC)n3)n2)n1 [Example 4, bis(butyryloxymethyl) 4′-(2-oxyethoxy)-2,2′:6′,2″-terpyridine-6,6″-dicarboxylate] | 43224 | 3590 | 8.3
CCCC(=O)OCOC(=O)c1cccc(-c2cc(OCCOCCO)cc(-c3cccc(C(=O)OCOC(=O)CCC)n3)n2)n1 [Example 7, bis(butyryloxymethyl) 4′-(2-(2-hydroxyethoxy)ethoxy)-2,2′:6′,2″-terpyridine-6,6″-dicarboxylate] | 63594 | 6133 | 9.6
CCCNC(=O)COc1cc(-c2cccc(C(=O)OCOC(C)=O)n2)nc(-c2cccc(C(=O)OCOC(C)=O)n2)c1 [Example 2, bis(acetoxymethyl) 4′-(2-oxo-2-(propylamino)ethoxy)-2,2′:6′,2″-terpyridine-6,6″-dicarboxylate] | 60521 | 7085 | 11.7
CC(=O)OCOC(=O)c1cccc(-c2cc(OCCO)cc(-c3cccc(C(=O)OCOC(C)=O)n3)n2)n1 [Example 3, bis(acetoxymethyl) 4′-(2-hydroxyethoxy)-2,2′:6′,2″-terpyridine-6,6″-dicarboxylate] | 69372 | 4890 | 7
CCCC(=O)OCOC(=O)c1cccc(-c2cc(OCCCO)cc(-c3cccc(C(=O)OCOC(=O)CCC)n3)n2)n1 [Example 6, bis(butyryloxymethyl) 4′-(3-hydroxypropoxy)-2,2′:6′,2″-terpyridine-6,6″-dicarboxylate] | 103235 | 9538 | 9.2
CC(=O)OCOC(=O)c1cccc(-c2cc(CO)cc(-c3cccc(C(=O)OCOC(C)=O)n3)n2)n1 [Example 9, bis(acetoxymethyl) 4′-(hydroxymethyl)-2,2′:6′,2″-terpyridine-6,6″-dicarboxylate] | 127955 | 21343 | 16.7
CC(=O)OCOC(=O)c1cccc(-c2cccc(-c3cccc(C(=O)OCOC(C)=O)n3)n2)n1 [BATDA, bis(acetoxymethyl) 2,2′:6′,2″-terpyridine-6,6″-dicarboxylate, reference compound] | 86785 | 14795 | 17
CCCC(=O)OCOC(=O)c1cccc(-c2cc(OCCO)cc(-c3cccc(C(=O)OCOC(=O)CCC)n3)n2)n1 [Example 1, bis(butyryloxymethyl) 4′-(2-hydroxyethoxy)-2,2′:6′,2″-terpyridine-6,6″-dicarboxylate] | 65576 | 6347 | 9.7
